Data: article PMC10447463, “Data-mining unveils structure–property–activity correlation of viral infectivity enhancing self-assembling peptides” (Nature Communications, 2023)

Experiment: Aggregate analysis by widefield fluorescence microscopy
Assay type: physicochemical
Summary of the method: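 Brightfield images were acquired alongside ThT fluorescence so that aggregates lacking ThT signal were also captured. Preformed peptide fibrils had been incubated 1 d at RT in PBS before dilution to 0.1 mg/mL in 50 µM ThT, and particles above 10 µm^2 were then counted and sized automatically.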

[1] = Fig S8 panels A, C, 3 fields of 1330 µm x 1330 µm
[2] = Fig S8 panels B, D, average aggregate area, 3 fields of 1330 µm x 1330 µm
[3] = Fig S8 panels B, D, median aggregate area, 3 fields of 1330 µm x 1330 µm
[4] = Fig S8 panels B, D, 3 fields of 1330 µm x 1330 µm
[5] = Fig S8 panels B, D, widefield fluorescence microscopy, 3 fields of 1330 µm x 1330 µm

Substance	Avg Area in 3 *(1330 µm *1330 µm) (Fig S8 panels A, C)	Log 10 Number of aggregates in 3 * (1330 µm *1330 µm) (Fig S8 panels A, C)	Median Area in 3 * (1330 µm *1330 µm) (Fig S8 panels A, C)	log Avg Area in 3 * ( (1330 µm *1330 µm)) (Fig S8 panels A, C)	log Median Area in 3 * ( (1330 µm *1330 µm)) (Fig S8 panels A, C)	log Total Area of all particles in 3 * (1330 µm *1330 µm) (Fig S8 panels A, C)	Number of aggregates in 3 * (1330 µm *1330 µm) [1]	Avg Area in 3 *(1330 µm *1330 µm) [2]	Median Area in 3 * (1330 µm *1330 µm) [3]	Total Area of all particles in 3 * (1330 µm *1330 µm) [4]	Number of aggregates in 3 * (1330 µm *1330 µm) [5]
CKAKAQANMWQ [BL8]	857.7	0.8016	479.9	2.933	2.681	3.735	6.333	857.7	479.9	5432	6.333
HHHHKIKIKIKIYYYY [TM6]	71.63	2.1683	19.72	1.855	1.295	4.023	147.3	71.63	19.72	10553.37833	147.3
QCKIKIQINMWQ [EF-C opt]	21.24	2.6	11.97	1.327	1.078	3.927	398	21.24	11.97	8454	398
KWKWQW [KB3]	112	1.442	41.405	2.049	1.617	3.491	27.67	112	41.405	3098	27.67
CKIKQIINMWQ [MG5a / CK17]	183.3	2.289	91.75	2.263	1.963	4.553	194.7	183.3	91.75	35686.92633	194.7
QCKAKAQA [CK24]								0	0	0	0
KIKQIINMWQ [JG2]	398.2	1.591	199.4905	2.6	2.3	4.191	39	398.2	199.4905	15530.404	39
CKFKQFFNM [CK14]	31.08	2.848	15.21	1.4925	1.182	4.34	704	31.08	15.21	21881.13867	704
